{"source": "paper PMC7125129", "about": "“Anti-HIV agent azidothymidine decreases Tet(X)-mediated bacterial resistance to tigecycline in Escherichia coli” (Communications Biology, 2020)", "key": {"[1]": {"system": "T1, E. fergusonnii 1C4-6 (tet(X4))", "T1 construct": "1C4-6 (tet(X4))", "assay": "organism not typed", "parameters": "Broth microdilution MIC, bacterial growth inhibition in Mueller-Hinton broth", "conditions": "read-out: MIC (μg/mL)", "procedure": "(§1) Bacterial and chemical reagents Sequential culturing of E. coli ATCC 25922 in the presence of subinhibitory levels of tigecycline, azidothymidine, or the combination. After 24 h co-incubation, any cultures that grew at higher than the MIC levels were passaged on drug free MHA plates and the MIC was then determined by broth microdilution. This serial passaging was repeated daily for 30 days. To further evaluate the synergistic activity between tigecycline and three candidates, standard checkerboard microdilution in E. coli B3-1 was performed. […] Thus, we next focused our insights on the potentiation potency of azidothymidine with tigecycline. We first evaluated the stability of the azidothymidine-tigecycline combination in the presence of salt ions and serum, which are two critical factors that affect the in vivo efficacy of drugs[20],[21]. […] However, addition of divalent cations such as Ca^2+ and Mg^2+ (10 mM) abolished its potentiation activity, but EDTA could augment the synergistic effect (Supplementary Fig. 2). Considering that divalent cations and EDTA are associated with membrane permeability, we speculated that entrance of two drugs into bacteria contribute to their activity. Next, we assessed the potency of this combination in a panel of clinical isolates from animals and environmental samples (Supplementary Tables 2 and 3). […]"}, "E. brevis S1-3 (tet(X3))": {"system": "T2, E. brevis S1-3 (tet(X3))", "T2 construct": "S1-3 (tet(X3))", "assay": "organism not typed", "parameters": "Broth microdilution MIC, bacterial growth inhibition in Mueller-Hinton broth", "conditions": "read-out: MIC (μg/mL)", "procedure": "as §1"}, "Tet(X4)": {"target": "T3, Tet(X4) (Escherichia coli, UniProt A0A3T0V9Y5)", "T3 construct": "gene mtr-1", "assay": "purified enzyme inhibition assay, tigecycline absorbance at […] nm", "type": "biochemical"}, "E. coli B8-1 (tet(X4))": {"system": "T4, E. coli B8-1 (tet(X4))", "T4 construct": "B8-1", "assay": "microbe, parasite or virus in culture", "parameters": "Broth microdilution MIC, bacterial growth inhibition in Mueller-Hinton broth", "conditions": "Escherichia coli, read-out: MIC (μg/mL)", "procedure": "(§2) Bacterial and chemical reagents Sequential culturing of E. coli ATCC 25922 in the presence of subinhibitory levels of tigecycline, azidothymidine, or the combination. After 24 h co-incubation, any cultures that grew at higher than the MIC levels were passaged on drug free MHA plates and the MIC was then determined by broth microdilution. This serial passaging was repeated daily for 30 days. To further evaluate the synergistic activity between tigecycline and three candidates, standard checkerboard microdilution in E. coli B3-1 was performed. […] Thus, we next focused our insights on the potentiation potency of azidothymidine with tigecycline. We first evaluated the stability of the azidothymidine-tigecycline combination in the presence of salt ions and serum, which are two critical factors that affect the in vivo efficacy of drugs[20],[21]. […] However, addition of divalent cations such as Ca^2+ and Mg^2+ (10 mM) abolished its potentiation activity, but EDTA could augment the synergistic effect (Supplementary Fig. 2). Considering that divalent cations and EDTA are associated with membrane permeability, we speculated that entrance of two drugs into bacteria contribute to their activity. Next, we assessed the potency of this combination in a panel of clinical isolates from animals and environmental samples (Supplementary Tables 2 and 3). […] To investigate whether this potentiation is also applicable in Tet(X)-negative bacteria, standard ATCC sensitive bacteria and other E. coli isolates with MIC values of ≤1 μg mL^−1 for tigecycline were tested."}, "E. coli G6 (NDM-5)": {"system": "T5, E. coli G6 (NDM-5)", "T5 construct": "G6", "assay": "microbe, parasite or virus in culture", "parameters": "Broth microdilution MIC, bacterial growth inhibition in Mueller-Hinton broth", "conditions": "Escherichia coli, read-out: MIC (μg/mL)", "procedure": "as §2"}, "E. coli P3-1 (tet(X4))": {"system": "T6, E. coli P3-1 (tet(X4))", "T6 construct": "P3-1", "assay": "microbe, parasite or virus in culture", "parameters": "Broth microdilution MIC, bacterial growth inhibition in Mueller-Hinton broth", "conditions": "Escherichia coli, read-out: MIC (μg/mL)", "procedure": "as §2"}, "[2]": {"system": "T7, E. coli B2 (NDM-5 + MCR-1)", "T7 construct": "B2", "assay": "microbe, parasite or virus in culture", "parameters": "Broth microdilution MIC, bacterial growth inhibition in Mueller-Hinton broth", "conditions": "Escherichia coli, read-out: MIC (μg/mL)", "procedure": "as §2"}, "[3]": {"system": "T8, S. aureus 215 (LZD^R + cfr)", "T8 construct": "215", "assay": "microbe, parasite or virus in culture", "parameters": "Broth microdilution MIC, bacterial growth inhibition in Mueller-Hinton broth", "conditions": "Staphylococcus aureus, read-out: MIC (μg/mL)", "procedure": "as §2"}, "E. coli P10-1 (tet(X4))": {"system": "T9, E. coli P10-1 (tet(X4))", "T9 construct": "P10-1", "assay": "microbe, parasite or virus in culture", "parameters": "Broth microdilution MIC, bacterial growth inhibition in Mueller-Hinton broth", "conditions": "Escherichia coli, read-out: MIC (μg/mL)", "procedure": "as §2"}, "E. coli C3 (NDM-1)": {"system": "T10, E. coli C3 (NDM-1)", "T10 construct": "C3", "assay": "microbe, parasite or virus in culture", "parameters": "Broth microdilution MIC, bacterial growth inhibition in Mueller-Hinton broth", "conditions": "Escherichia coli, read-out: MIC (μg/mL)", "procedure": "as §2"}, "E. coli B9-1 (tet(X4))": {"system": "T11, E. coli B9-1 (tet(X4))", "T11 construct": "B9-1", "assay": "microbe, parasite or virus in culture", "parameters": "Broth microdilution MIC, bacterial growth inhibition in Mueller-Hinton broth", "conditions": "Escherichia coli, read-out: MIC (μg/mL)", "procedure": "as §2"}, "[4]": {"system": "T12, Escherichia coli ATCC 25922", "T12 construct": "ATCC 25922", "assay": "microbe, parasite or virus in culture", "parameters": "Broth microdilution MIC, bacterial growth inhibition in Mueller-Hinton broth", "conditions": "Escherichia coli, ATCC25922, read-out: MIC (μg/mL)", "procedure": "as §2"}, "[5]": {"system": "T13, Shigella 1F25-27 (tet(X4))", "T13 construct": "1F25-27 (tet(X4))", "assay": "microbe, parasite or virus in culture", "parameters": "Broth microdilution MIC, bacterial growth inhibition in Mueller-Hinton broth", "conditions": "read-out: MIC (μg/mL)", "procedure": "as §2"}, "[6]": {"system": "T14, Salmonella enterica ATCC 13076", "T14 construct": "ATCC 13076", "assay": "microbe, parasite or virus in culture", "parameters": "Broth microdilution MIC, bacterial growth inhibition in Mueller-Hinton broth", "conditions": "ATCC13076, read-out: MIC (μg/mL)", "procedure": "as §2"}, "[7]": {"system": "T15, Enterococcus faecalis VRE A4", "T15 construct": "VRE A4", "assay": "microbe, parasite or virus in culture", "parameters": "Broth microdilution MIC, bacterial growth inhibition in Mueller-Hinton broth", "conditions": "read-out: MIC (μg/mL)", "procedure": "as §2"}, "[8]": {"system": "T16, Staphylococcus aureus MRSA 1518", "T16 construct": "1518", "assay": "microbe, parasite or virus in culture", "parameters": "Broth microdilution MIC, bacterial growth inhibition in Mueller-Hinton broth", "conditions": "Staphylococcus aureus, MRSA, read-out: MIC (μg/mL)", "procedure": "as §2"}, "E. coli B3-1 (tet(X4))": {"system": "T17, E. coli B3-1 (tet(X4))", "T17 construct": "B3-1", "assay": "microbe, parasite or virus in culture", "parameters": "Broth microdilution MIC, bacterial growth inhibition in Mueller-Hinton broth", "conditions": "Escherichia coli", "procedure": "as §2"}, "E. coli W7-1 (tet(X4))": {"system": "T18, E. coli W7-1 (tet(X4))", "T18 construct": "W7-1", "assay": "microbe, parasite or virus in culture", "parameters": "Broth microdilution MIC, bacterial growth inhibition in Mueller-Hinton broth", "conditions": "Escherichia coli, read-out: MIC (μg/mL)", "procedure": "as §2"}, "[9]": {"system": "T19, Staphylococcus aureus ATCC 29213", "T19 construct": "ATCC 29213", "assay": "microbe, parasite or virus in culture", "parameters": "Broth microdilution MIC, bacterial growth inhibition in Mueller-Hinton broth", "conditions": "Staphylococcus aureus, ATCC29213, read-out: MIC (μg/mL)", "procedure": "as §2"}, "[10]": {"system": "T20, Staphylococcus aureus MRSA T144", "T20 construct": "T144", "assay": "microbe, parasite or virus in culture", "parameters": "Broth microdilution MIC, bacterial growth inhibition in Mueller-Hinton broth", "conditions": "Staphylococcus aureus, MRSA, read-out: MIC (μg/mL)", "procedure": "as §2"}, "[11]": {"system": "T21, Proteus penneri 2F1-3 (tet(X4))", "T21 construct": "2F1-3 (tet(X4))", "assay": "microbe, parasite or virus in culture", "parameters": "Broth microdilution MIC, bacterial growth inhibition in Mueller-Hinton broth", "conditions": "read-out: MIC (μg/mL)", "procedure": "as §2"}}, "note": "Like-named read-outs stand apart in the source and are kept apart here.", "data": [{"smiles": "Cc1cn([C@H]2C[C@H](N=[N+]=[N-])[C@@H](CO)O2)c(=O)[nH]c1=O", "note": "[AZI, azidothymidine]", "values": [{"measurement": "MIC", "setting": "[1]", "result": 8, "unit": "µg/mL"}, {"measurement": "MIC", "setting": "E. brevis S1-3 (tet(X3))", "result": "> 32", "unit": "µg/mL"}, {"measurement": "IC50", "setting": "Tet(X4)", "result": 106, "unit": "nM"}, {"measurement": "MIC", "setting": "E. coli B8-1 (tet(X4))", "result": 0.5, "unit": "µg/mL"}, {"measurement": "MIC", "setting": "E. coli G6 (NDM-5)", "result": 4, "unit": "µg/mL"}, {"measurement": "MIC", "setting": "E. coli P3-1 (tet(X4))", "result": 0.5, "unit": "µg/mL"}, {"measurement": "MIC", "setting": "[2]", "result": "> 16", "unit": "µg/mL"}, {"measurement": "MIC", "setting": "[3]", "result": "> 16", "unit": "µg/mL"}, {"measurement": "MIC", "setting": "E. coli P10-1 (tet(X4))", "result": 0.25, "unit": "µg/mL"}, {"measurement": "MIC", "setting": "E. coli C3 (NDM-1)", "result": "> 16", "unit": "µg/mL"}, {"measurement": "MIC", "setting": "E. coli B9-1 (tet(X4))", "result": 1, "unit": "µg/mL"}, {"measurement": "MIC", "setting": "[4]", "result": 2, "unit": "µg/mL"}, {"measurement": "MIC", "setting": "[5]", "result": 2, "unit": "µg/mL"}, {"measurement": "MIC", "setting": "[6]", "result": 0.25, "unit": "µg/mL"}, {"measurement": "MIC", "setting": "[7]", "result": "> 16", "unit": "µg/mL"}, {"measurement": "MIC", "setting": "[8]", "result": "> 16", "unit": "µg/mL"}, {"measurement": "MIC", "setting": "E. coli B3-1 (tet(X4)); read-out: MIC (μg/mL)", "result": 1, "unit": "µg/mL"}, {"measurement": "MIC", "setting": "E. coli W7-1 (tet(X4))", "result": 2, "unit": "µg/mL"}, {"measurement": "MIC", "setting": "[9]", "result": "> 16", "unit": "µg/mL"}, {"measurement": "MIC", "setting": "[10]", "result": "> 16", "unit": "µg/mL"}, {"measurement": "MIC", "setting": "[11]", "result": 8, "unit": "µg/mL"}]}, {"smiles": "CN(C)c1cc(NC(=O)CNC(C)(C)C)c(O)c2c1C[C@H]1C[C@H]3[C@H](N(C)C)C(O)=C(C(N)=O)C(=O)[C@@]3(O)C(O)=C1C2=O", "note": "[Tigecycline]", "values": [{"measurement": "MIC", "setting": "E. coli B3-1 (tet(X4)); read-out: MHB (MIC, μg/mL)", "result": 32, "unit": "µg/mL"}]}]}
